The record followed here is patent publication US11078213B2, “Thienopyrimidine compound, preparation method thereof, pharmaceutical composition and application thereof” (HONGYUN BIOTECH CO., LTD., priority 2016, dated 2021).

One assay deals with T1, NPM-ALK-BaF3 (Homo sapiens, UniProt Q9UM73).
T1 construct: NPM (nuclear phosphoprotein / nucleophosmin, NPM1, P06748) fusion partner; expressed in transfected cells; host or cells: BaF3; the other entry of the earlier key: NPM1 (P06748, Nucleophosmin)
T1 sequence (Q9UM73 with tags, fused parts or gaps): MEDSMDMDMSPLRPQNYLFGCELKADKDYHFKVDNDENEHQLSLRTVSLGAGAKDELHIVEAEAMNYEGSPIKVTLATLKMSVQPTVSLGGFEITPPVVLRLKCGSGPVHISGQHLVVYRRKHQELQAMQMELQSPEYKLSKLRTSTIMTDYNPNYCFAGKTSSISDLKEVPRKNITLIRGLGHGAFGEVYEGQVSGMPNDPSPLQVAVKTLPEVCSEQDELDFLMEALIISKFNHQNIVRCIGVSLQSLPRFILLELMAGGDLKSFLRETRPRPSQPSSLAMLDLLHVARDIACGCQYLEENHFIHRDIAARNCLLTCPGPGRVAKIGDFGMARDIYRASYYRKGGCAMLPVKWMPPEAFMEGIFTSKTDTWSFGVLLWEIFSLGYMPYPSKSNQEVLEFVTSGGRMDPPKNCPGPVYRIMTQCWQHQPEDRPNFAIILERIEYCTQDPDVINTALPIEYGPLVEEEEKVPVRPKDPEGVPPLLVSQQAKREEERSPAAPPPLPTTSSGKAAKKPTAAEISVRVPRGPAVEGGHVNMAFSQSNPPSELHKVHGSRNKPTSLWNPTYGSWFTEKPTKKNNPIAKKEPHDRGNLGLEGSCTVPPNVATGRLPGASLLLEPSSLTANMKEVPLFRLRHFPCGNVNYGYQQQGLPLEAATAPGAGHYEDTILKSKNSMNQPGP
Description: Growth inhibition of BaF3 cells stably transfected with kinase NPM-ALK (MTS). Format: cell-based. The settings on record: compound concentration 3.3 μM, read-out: cell growth inhibition rate, NPM-ALK. The procedure:
(§1) The specific test method is given as follows:
(§2) 2) Reagent: MTS reaction solution (containing 2 mg/mL of MTS [3-(4,5-dimethylthiazol-2-yl)-5-(3-carboxymethoxyphenyl)-2-(4-sulfophenyl)-2H-tetra zolium, inner Salt]; 100 µg/mL PES ([…])).

A further assay addresses T2, EML4-ALK-BaF3 (Homo sapiens, UniProt Q9UM73).
T2 construct: EML4 (echinoderm microtubule associated protein like 4, Q9HC35) fusion partner; expressed in transfected cells; host or cells: BaF3; the other entry of the earlier key: EML4 (Q9HC35, Echinoderm microtubule-associated protein-like 4)
The assay is described as follows: Growth inhibition of BaF3 cells stably transfected with kinase EML4-ALK (MTS). The settings on record: compound concentration 3.3 μM, read-out: cell growth inhibition rate, EML4-ALK. Format: cell-based. The procedure:
as §1, §2

T2 sequence (Q9UM73 1058-1620 limits assumed): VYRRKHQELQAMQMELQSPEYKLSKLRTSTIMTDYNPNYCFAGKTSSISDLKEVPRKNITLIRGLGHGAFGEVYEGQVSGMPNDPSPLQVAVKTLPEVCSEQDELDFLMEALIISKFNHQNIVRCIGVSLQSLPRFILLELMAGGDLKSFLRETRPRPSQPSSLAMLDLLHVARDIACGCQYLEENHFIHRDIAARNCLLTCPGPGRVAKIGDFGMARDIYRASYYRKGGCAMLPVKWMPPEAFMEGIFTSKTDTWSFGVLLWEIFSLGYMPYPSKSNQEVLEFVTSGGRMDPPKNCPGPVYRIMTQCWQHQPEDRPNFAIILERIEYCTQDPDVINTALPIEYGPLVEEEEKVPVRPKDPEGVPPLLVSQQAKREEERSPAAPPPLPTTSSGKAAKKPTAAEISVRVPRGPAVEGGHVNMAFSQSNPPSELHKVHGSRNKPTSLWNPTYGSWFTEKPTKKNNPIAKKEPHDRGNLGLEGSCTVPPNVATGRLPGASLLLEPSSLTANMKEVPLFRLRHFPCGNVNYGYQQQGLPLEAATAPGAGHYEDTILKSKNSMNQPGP

As to `CCOc1cc(N2CCN(C)CC2)ccc1Nc1nc(Nc2ccccc2C(=O)OC)c2sccc2n1` [IE-6], the inhibition at 3.3 µM at NPM-ALK-BaF3 came to 0%; at EML4-ALK-BaF3, 98.5%.
Turning to `COC(=O)c1ccccc1Sc1nc(Nc2ccc(N3CCN(C)CC3)cc2OC)nc2ccsc12` [IN-3], the figures for the inhibition at 3.3 µM at NPM-ALK-BaF3 and at EML4-ALK-BaF3 were 12.3% and 98.8%, respectively.
For `COc1cc(N2CCC(N3CCN(C)CC3)CC2)ccc1Nc1nc(Nc2ccccc2S(C)(=O)=O)c2sccc2n1` [IA-2], the values for the inhibition at 3.3 µM on NPM-ALK-BaF3 and on EML4-ALK-BaF3 were 87.6% and 98.9%, respectively.
For `COc1cc(N2CCN(C)CC2)ccc1Nc1nc(Nc2ccccc2[S+]([O-])C(C)C)c2sccc2n1` (stereo not shown) [IJ-4] the same measures were 88.8% and more than 99%.
Taken in the same sequence, the figures for `COc1cc(C2CCN(C)CC2)c(C)cc1Nc1nc(Nc2ccccc2P(C)(C)=O)c2sccc2n1` [IK-5] were 85.5% and 99.6%.
Taken in the same sequence, the figures for `COC(=O)c1ccccc1Sc1nc(Nc2ccc(N3CCC(O)CC3)cc2)nc2ccsc12` [IN-4] were 7.09% and 98.3%.
As for `COC(=O)c1cccc(Nc2nc(Nc3cc(C)c(C4CCN(C)CC4)cc3OC)nc3ccsc23)c1` [ID-6], the inhibition at 3.3 µM is -24.1% on NPM-ALK-BaF3 and 99.9% at EML4-ALK-BaF3.
Consider `COc1cc(N2CCC(N(C)C)CC2)ccc1Nc1nc(Nc2ccccc2[S+]([O-])C(C)C)c2sccc2n1` (stereo not shown) [IJ-6], for which the results for the inhibition at 3.3 µM at NPM-ALK-BaF3 and on EML4-ALK-BaF3 were 81.9% and more than 99%, respectively.
Turning to `CNC(=O)c1ccccc1Nc1nc(Nc2ccc(N3CCC(N4CCN(C)CC4)CC3)cc2)nc2ccsc12` [II-6], the inhibition at 3.3 µM at NPM-ALK-BaF3 turned out to be 36.9%; at EML4-ALK-BaF3 it was 92.9%.
Regarding `CNC(=O)c1cccc(F)c1Nc1nc(Nc2ccc(N3CCN(C)CC3)cc2OC)nc2ccsc12` [IF-3], the inhibition at 3.3 µM at NPM-ALK-BaF3 amounted to 12%; on EML4-ALK-BaF3 it was 87.1%.
For `COC(=O)c1ccccc1Nc1nc(Nc2ccc(N3CCC(N4CCN(C)CC4)CC3)cc2OC)nc2ccsc12` [IE-1] the same measures were 69.5% and 97%.
With `CNC(=O)c1cccc(F)c1Nc1nc(Nc2cc3c(cc2OC)CCN3C(=O)CN(C)C)nc2ccsc12` [IF-1], the inhibition at 3.3 µM at NPM-ALK-BaF3 is 6.16%; at EML4-ALK-BaF3, more than 99%.
In the case of `COC(=O)c1ccccc1Sc1nc(Nc2cc3c(cc2OC)CCN3C(=O)CN(C)C)nc2ccsc12` [IN-1], the inhibition at 3.3 µM on NPM-ALK-BaF3 is 17.7%; at EML4-ALK-BaF3, 100%.
For the compound `COC(=O)c1cccc(Nc2nc(Nc3cc(C)c(C4CCN(C)CC4)cc3OC(C)C)nc3ccsc23)c1` [ID-5], the inhibition at 3.3 µM at NPM-ALK-BaF3 is 93.9%; on EML4-ALK-BaF3, more than 99%.
Take `COc1cc(N2CCC(N3CCN(C)CC3)CC2)ccc1Nc1nc(Nc2ccccc2P(=O)(C(C)C)C(C)C)c2sccc2n1` [IR-4]: at EML4-ALK-BaF3, the inhibition at 3.3 µM amounted to 98.4%.
`COc1cc(N2CCN(C)CC2)ccc1Nc1nc(Nc2ccccc2P(C)(C)=O)c2sccc2n1` [IK-4]: the inhibition at 3.3 µM on NPM-ALK-BaF3 came out at 77.4%; at EML4-ALK-BaF3 it was 99.3%.
Take `CNC(=O)c1ccccc1Nc1nc(Nc2ccc(N3CCC(N4CCCC4)CC3)cc2OC)nc2ccsc12` [II-7]: the inhibition at 3.3 µM on NPM-ALK-BaF3 came to 79.5%; at EML4-ALK-BaF3, 98.5%.
As to `COc1cc2c(cc1Nc1nc(Nc3ccccc3S(=O)(=O)C(C)C)c3sccc3n1)N(C(=O)CN1CCCC1)CC2` [IB-33], the inhibition at 3.3 µM at EML4-ALK-BaF3 amounted to 98.3%.
Consider `COc1cc(N2CCC(N3CCN(C)CC3)CC2)ccc1Nc1nc(Nc2ccccc2[S+]([O-])C(C)C)c2sccc2n1` (stereo not shown) [IJ-2], for which the inhibition at 3.3 µM on NPM-ALK-BaF3 turned out to be 87.7%; at EML4-ALK-BaF3 it was 99.3%.
On to `COc1cc(N2CCC(N3CCCC3)CC2)ccc1Nc1nc(Nc2ccccc2NS(C)(=O)=O)c2sccc2n1` [IH-6], for which the inhibition at 3.3 µM at NPM-ALK-BaF3 was 84.5%; at EML4-ALK-BaF3 it was 97.8%.
Turning to `COc1cc(N2CCC(N3CCCC3)CC2)ccc1Nc1nc(Nc2ccccc2S(C)(=O)=O)c2sccc2n1` [IA-3], the inhibition at 3.3 µM on NPM-ALK-BaF3 stood at 92.7%; on EML4-ALK-BaF3, 99.8%.
On to `COc1cc2c(cc1Nc1nc(Nc3ccccc3S(C)(=O)=O)c3sccc3n1)N(C(=O)CN(C)C)CC2` [IA-1], for which the inhibition at 3.3 µM at NPM-ALK-BaF3 worked out at 87.6%; at EML4-ALK-BaF3, 94.9%.
For the compound `COc1cc(N2CCN(C)CC2)ccc1Nc1nc(Nc2ccccc2S(=O)(=O)C(C)(C)C)c2sccc2n1` [IO-3], the inhibition at 3.3 µM at EML4-ALK-BaF3 was 98.7%.
On to `COc1cc2c(cc1Nc1nc(OCc3ccccc3S(=O)(=O)C(C)C)c3sccc3n1)N(C(=O)CN(C)C)CC2` [IT-1], for which the inhibition at 3.3 µM at EML4-ALK-BaF3 stood at 99.8%.
On to `CCP(=O)(CC)c1ccccc1Nc1nc(Nc2cc3c(cc2OC)CCN3C(=O)CN(C)C)nc2ccsc12` [IS-1], for which the inhibition at 3.3 µM at EML4-ALK-BaF3 is 98.7%.
Regarding `COc1cc(N2CCC(N3CCCC3)CC2)ccc1Nc1nc(Nc2cccc(NS(C)(=O)=O)c2)c2sccc2n1` [IG-5], the inhibition at 3.3 µM on NPM-ALK-BaF3 was 10.9%; on EML4-ALK-BaF3 it was more than 99%.
For the compound `COc1cc(C2CCN(C)CC2)c(C)cc1Nc1nc(Nc2cccc(NS(C)(=O)=O)c2)c2sccc2n1` [IG-4], the inhibition at 3.3 µM on NPM-ALK-BaF3 stood at 87.6%; on EML4-ALK-BaF3, 97.8%.
With `COc1cc(F)c(NC(=O)CN(C)C)cc1Nc1nc(Nc2ccccc2S(=O)(=O)C(C)C)c2sccc2n1` [IB-35], at EML4-ALK-BaF3, the inhibition at 3.3 µM is 96.8%.
For `COC(=O)c1ccccc1Nc1nc(Nc2cc(C)c(C3CCN(C)CC3)cc2OC)nc2ccsc12` [IE-8], the inhibition at 3.3 µM is 84.2% at NPM-ALK-BaF3 and 98% at EML4-ALK-BaF3.
`CCP(=O)(CC)c1ccccc1Nc1nc(Nc2ccc(N3CCC(N4CCCC4)CC3)cc2OC)nc2ccsc12` [IS-2]: the inhibition at 3.3 µM on EML4-ALK-BaF3 was 98.2%.
On to `COc1cc(N2CCC(N3CCN(C)CC3)CC2)ccc1Nc1nc(Nc2ccccc2S(=O)(=O)C(C)C)c2sccc2n1` [IB-2], for which the inhibition at 3.3 µM was 94.4% on NPM-ALK-BaF3 and 82.9% at EML4-ALK-BaF3.
On to `COc1cc(N2CCC(N3CCN(C)CC3)CC2)ccc1Nc1nc(Nc2ccccc2P(C)(C)=O)c2sccc2n1` [IK-2], for which the inhibition at 3.3 µM on NPM-ALK-BaF3 stood at 82.8%; at EML4-ALK-BaF3, 100%.
Turning to `COc1cc(N2CCC(N(C)C)CC2)ccc1Nc1nc(Nc2ccccc2S(=O)(=O)C(C)(C)C)c2sccc2n1` [IO-4], the inhibition at 3.3 µM on EML4-ALK-BaF3 is 97%.
As for `COC(=O)c1ccccc1Nc1nc(Nc2ccc(N3CCC(N4CCCC4)CC3)cc2OC)nc2ccsc12` [IE-5], the figures for the inhibition at 3.3 µM on NPM-ALK-BaF3 and at EML4-ALK-BaF3 were 87.6% and 99%, respectively.
For `COc1cc(N2CCC(N3CCCC3)CC2)ccc1Nc1nc(Nc2ccccc2[S+]([O-])C(C)C)c2sccc2n1` (stereo not shown) [IJ-3] the same measures were 84.8% and 99.9%.
For the compound `COc1ccc(NC(=O)CN(C)C)cc1Nc1nc(Nc2ccccc2S(=O)(=O)C(C)C)c2sccc2n1` [IB-32], the inhibition at 3.3 µM on EML4-ALK-BaF3 amounted to 95%.
On the same count and under the same terms, with `COc1cc(N2CCC(N3CCN(C)CC3)CC2)ccc1Nc1nc(Nc2ccccc2C(=O)NC(C)C)c2sccc2n1` [IP-1] the figure was 97.4%.
With `COc1cc(N2CCC(N(C)C)CC2)ccc1Nc1nc(Nc2ccccc2P(C)(C)=O)c2sccc2n1` [IK-6], the values for the inhibition at 3.3 µM on NPM-ALK-BaF3 and on EML4-ALK-BaF3 were 90.2% and 99.3%, respectively.
Taken in the same sequence, the figures for `COC(=O)c1cccc(Nc2nc(Nc3ccc(N4CCC(N5CCCC5)CC4)cc3OC)nc3ccsc23)c1` [ID-4] were 90.7% and 98.5%.
Take `COC(=O)c1ccccc1Nc1nc(Nc2ccc(N3CCC(N4CCN(C)CC4)CC3)cc2)nc2ccsc12` [IE-4]: the inhibition at 3.3 µM on NPM-ALK-BaF3 worked out at 93.6%; on EML4-ALK-BaF3 it was 96.7%.
For `COc1cc(N2CCC(N(C)C)CC2)ccc1Nc1nc(OCc2ccccc2S(=O)(=O)C(C)C)c2sccc2n1` [IT-5], the inhibition at 3.3 µM at EML4-ALK-BaF3 stood at 101%.
In the case of `COc1cc2c(cc1Nc1nc(Nc3ccccc3[S+]([O-])C(C)C)c3sccc3n1)N(C(=O)CN(C)C)CC2` (stereo not shown) [IJ-1], the results for the inhibition at 3.3 µM on NPM-ALK-BaF3 and on EML4-ALK-BaF3 were 87.1% and more than 99%, respectively.
With `CCP(=O)(CC)c1ccccc1Nc1nc(Nc2ccc(N3CCC(N(C)C)CC3)cc2OC)nc2ccsc12` [IS-6], the inhibition at 3.3 µM at EML4-ALK-BaF3 was 99.5%.
Consider `COC(=O)c1ccccc1Sc1nc(Nc2cc(C)c(C3CCN(C)CC3)cc2OC)nc2ccsc12` [IN-7], for which the figures for the inhibition at 3.3 µM at NPM-ALK-BaF3 and on EML4-ALK-BaF3 were 70% and more than 99%, respectively.
Regarding `COC(=O)c1ccccc1Nc1nc(Nc2ccc(N3CCC(O)CC3)cc2)nc2ccsc12` [IE-2], the values for the inhibition at 3.3 µM at NPM-ALK-BaF3 and at EML4-ALK-BaF3 were 50.5% and 98.2%, respectively.
As to `COc1cc(C2CCN(C)CC2)c(C)cc1Nc1nc(Nc2ccccc2NS(C)(=O)=O)c2sccc2n1` [IH-5], the inhibition at 3.3 µM turned out to be 84.2% on NPM-ALK-BaF3 and 98% at EML4-ALK-BaF3.
Taken in the same sequence, the figures for `COC(=O)c1ccccc1Sc1nc(Nc2ccc(S(N)(=O)=O)cc2)nc2ccsc12` [IN-5] were 6.73% and 30.9%.
`COc1cc(N2CCC(N(C)C)CC2)ccc1Nc1nc(Nc2ccccc2P(=O)(C(C)C)C(C)C)c2sccc2n1` [IR-5]: the inhibition at 3.3 µM on EML4-ALK-BaF3 stood at 98.3%.
In the case of `CCP(=O)(CC)c1ccccc1Nc1nc(Nc2ccc(N3CCC(N4CCN(C)CC4)CC3)cc2OC)nc2ccsc12` [IS-3], at EML4-ALK-BaF3, the inhibition at 3.3 µM came to 101%.
The same measure, in the same setting: with `COc1cc2c(cc1Nc1nc(Nc3ccccc3S(=O)(=O)C(C)(C)C)c3sccc3n1)N(C(=O)CN(C)C)CC2` [IO-1] the figure was 97.1%; with `COc1cc2c(cc1Nc1nc(Nc3ccccc3C(=O)N(C)C)c3sccc3n1)N(C(=O)CN(C)C)CC2` [IQ-1], 96.9%; with `CC(C)S(=O)(=O)c1ccccc1COc1nc(Nc2ccc(N3CCOCC3)cc2)nc2ccsc12` [IT-4], 100%.
In the case of `CCP(=O)(CC)c1ccccc1Nc1nc(Nc2ccc(N3CCN(C)CC3)cc2)nc2ccsc12` [IS-5], the inhibition at 3.3 µM on EML4-ALK-BaF3 was 103%.

Broadly, the inhibition is the drop in the measured response relative to a control, in per cent.
